{"source": "patent US20040019066A1", "about": "“Methionine salvage pathway in bacillus” (priority 2002, published 2004)", "key": {"[1]": {"tested_on": "Strain BSHP7014 (mtnW:lacZ amyE::pxyl mtnXYZ)", "experiment": "Toxicity of MTR for BSHP7014 strain (paper disc on ED1 minimal medium plates)", "type": "cell-based, Bacillus subtilis", "protocol": "Toxicity of MTR for BSHP7014 strain. Strain BSHP7014 (mtnW:lacZ amyE::pxyl mtnXYZ) was grown on ED1 minimal medium plates in the presence of sulfate as sulfur source (panel A) or in the absence of any added sulfur source (agar as sole sulfur source, panel B). Xylose was added to the medium in order to trigger the expression of mtnXYZ from the pxyl promoter, 10 μl of methionine (met) or MTR was adsorbed on paper discs and plates were incubated over-night at 37° C. Methionine was used as a control for growth and/or toxicity of the sulfur source.\nTwo genes in the pathway are dispensable, mtnV and mtnX. The first one encodes a transaminase of which there are nine putative paralogs in the genome of B. subtilis (YwfG, AlaT, AspB, PatA, YhdR, YdfD, PatB, YisV, and HisC). In the same way, MtnX (YkrX) is a member of the phosphatase family pfam00702 ([12], FIG. 6), and therefore of a ubiquitous class of hydrolases (several phosphatase genes, in particular are present in the genome of B. subtilis). This is likely to account for the lack of phenotype under our growth conditions. […] In contrast, we discovered that MTR is toxic when the distal genes are present (when used as sole sulfur source or in the presence of sulfate, see FIG. 7). Because of the weak phenotype of a mtnZ mutant and the absence of phenotype of a mtnX mutant, we can be confident that MtnY acts before MtnW (this is a common feature in operons, where it is generally observed that the more distal genes code for proteins acting in the more proximate steps of the pathway).\nBacterial strains and plasmids, and growth media: E. coli and B. subtilis strains as well as plasmids used in this work are listed in Table 3. E. coli TG1 and XL1-Blue were used for cloning experiments (TG1 for single cross-over recombination and XL1-Blue for double cross-over recombination). Despite the fact that there are no public regulations yet in this domain in China, all experiments were performed in accordance with the European regulation requirements concerning the contained use of Genetically Modified Organisms of Group-I (French agreement N^o 2735). […] In the latter case, 10 [μl of the sulfur source under investigation was applicated onto paper discs (MTR, 200 mM stock solution and methionine, 100 mM stock solution) deposited at the center of the plate, after bacteria had been uniformly spread at the surface of the plate, and growth was measured around the disK. […] The optical density (OD) of bacterial cultures was measured at 600 nm. […]"}, "[2]": {"tested_on": "B. subtilis 168 and mtn region mutants", "details": "Bacillus subtilis; reference [5]; cited from earlier work"}, "[3]": {"tested_on": "B. subtilis 168 and mtn region mutants", "experiment": "Growth on MTR as sole sulfur source (ED1 minimal medium plates)", "type": "cell-based, Bacillus subtilis", "details": "mtnX mutant, strain BFS1852, in the absence of IPTG"}}, "data": [{"compound": "CSC[C@@H](O)[C@@H](O)[C@@H](O)C=O", "note": "[MTR, methylthioribose]", "values": [{"measurement": "Toxicity of MTR to the cell", "setting": "[1]; mtnU mutant, mtnY functional", "value": "toxic"}, {"measurement": "Influence of MTR on sulfate supplemented plates", "setting": "[1]; mtnW inactivated with a polar effect on the distal genes", "value": "lack of influence"}, {"measurement": "Toxicity of MTR to the cell", "setting": "[1]; mtnW mutant with distal genes mtnXYZ present, MTR as sole sulfur source or in the presence of sulfate", "value": "extremely toxic"}, {"measurement": "MTR as sulfur source", "setting": "[2]", "value": "excellent sulfur source"}, {"measurement": "Growth on MTR as sole sulfur source", "setting": "[3]", "value": "failed to grow"}]}]}
